In ChEMBL document CHEMBL4739716, “Gpr139 receptor modulators” (2020):

Key:
[1] = molecular target: T1, Probable G-protein coupled receptor 139 (Homo sapiens, UniProt Q6DWJ6); test: Agonist activity at human GPR139 expressed in CHO-K1 cells assessed as induction of beta-arrestin 2 recruitment incubated for 90 mins by PathHunter assay; format: cell-based
T1 sequence (Q6DWJ6 whole entry): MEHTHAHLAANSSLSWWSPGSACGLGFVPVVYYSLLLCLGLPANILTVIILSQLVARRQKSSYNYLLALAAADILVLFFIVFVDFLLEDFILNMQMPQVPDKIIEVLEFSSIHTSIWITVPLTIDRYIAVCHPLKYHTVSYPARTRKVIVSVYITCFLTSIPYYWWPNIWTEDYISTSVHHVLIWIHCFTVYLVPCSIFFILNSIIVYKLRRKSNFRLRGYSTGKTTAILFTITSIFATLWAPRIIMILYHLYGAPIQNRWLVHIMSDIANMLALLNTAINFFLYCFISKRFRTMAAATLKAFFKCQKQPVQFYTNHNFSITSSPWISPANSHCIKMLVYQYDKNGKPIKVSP

[2] = molecular target: T2, Probable G-protein coupled receptor 139 (Homo sapiens) (UniProt Q6DWJ6); test: Agonist activity at human GPR139 expressed in CHO-K1 cells assessed as increase in calcium flux by calcium 5 dye based FLIPR assay relative to JNJ63533054; format: functional, cell-based; details: filed as agonist
T2 sequence (whole entry): T1 sequence (Q6DWJ6 whole entry)

[3] = molecular target: T1, Probable G-protein coupled receptor 139; test: Agonist activity at human GPR139 expressed in CHO-K1 cells assessed as increase in calcium flux by calcium 5 dye based FLIPR assay; format: functional, cell-based
[4] = molecular target: T2, Probable G-protein coupled receptor 139 (Homo sapiens); test: Agonist activity at human GPR139 expressed in CHO-K1 cells assessed as induction of beta-arrestin 2 recruitment incubated for 90 mins by PathHunter assay relative to JNJ63533054; format: cell-based
[5] = molecular target: T3, Probable G-protein coupled receptor 139 (Rattus norvegicus, UniProt P0C0W8); test: Agonist activity at rat GPR139 expressed in CHO-K1 cells assessed as increase in calcium flux by calcium 5 dye based FLIPR assay; format: cell-based
T3 sequence (P0C0W8 whole entry): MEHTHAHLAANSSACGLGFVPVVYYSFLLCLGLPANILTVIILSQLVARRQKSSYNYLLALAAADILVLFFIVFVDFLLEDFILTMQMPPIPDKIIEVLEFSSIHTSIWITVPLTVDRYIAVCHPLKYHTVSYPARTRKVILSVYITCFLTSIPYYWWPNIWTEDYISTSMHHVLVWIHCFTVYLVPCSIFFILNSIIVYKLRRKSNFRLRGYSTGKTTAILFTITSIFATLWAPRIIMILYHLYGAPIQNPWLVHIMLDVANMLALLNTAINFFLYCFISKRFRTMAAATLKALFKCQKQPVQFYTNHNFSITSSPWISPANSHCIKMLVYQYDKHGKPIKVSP

[6] = molecular target: T4, Probable G-protein coupled receptor 139 (Rattus norvegicus) (UniProt P0C0W8); test: Agonist activity at rat GPR139 expressed in CHO-K1 cells assessed as increase in calcium flux by calcium 5 dye based FLIPR assay relative to JNJ63533054; format: cell-based
T4 sequence (whole entry): T3 sequence (P0C0W8 whole entry)

| Structure (SMILES) | EC50 [1] [nM] | Emax [2] [%] | EC50 [3] [nM] | Emax [4] [%] | EC50 [5] [nM] | Emax [6] [%] | EC50 ([1]; cho-k1) [nM] | Emax ([4]; filed as agonist) [%] | Emax ([6]; filed as agonist) [%] | EC50 ([3]; cho-k1) [nM] | EC50 ([5]; cho-k1) [nM] |
| --- | --- | --- | --- | --- | --- | --- | --- | --- | --- | --- | --- |
| COc1ccc2nn(CC(=O)N[C@@H](C)c3ccc(Cl)cc3)c(=O)n2n1 | < 1 | > 80 | < 1 | 25 | ≥ 100 | 25 |  |  |  |  |  |
| Cc1ccc2nn(CC(=O)N[C@@H](C)c3ccc(Cl)c(F)c3)c(=O)n2n1 |  | > 80 | < 1 |  | < 1 |  | 10 | 50 | > 80 |  |  |
| COc1cnn2c(=O)n(CC(=O)N[C@@H](C)c3ccc(Cl)c(F)c3)nc2c1 |  | > 80 | < 1 |  | < 1 |  | 1 | > 80 | > 80 |  |  |
| C[C@H](NC(=O)Cn1nc2cccnn2c1=O)c1ccc(Cl)c(Cl)c1 |  | > 80 |  |  |  |  | 10 | 50 | 50 | 1 | 1 |
| Cc1ccc2nn(CC(=O)N[C@@H](C)c3ccc(OC(F)(F)F)cc3)c(=O)n2c1 |  | > 80 | < 1 |  | < 1 |  | 1 | > 80 | 50 |  |  |
| COc1ccn2c(=O)n(CC(=O)N[C@@H](C)c3ccc(C)cc3)nc2c1 |  | > 80 | < 1 |  | < 1 |  | 1 | 50 | 50 |  |  |
| C[C@H](NC(=O)Cn1nc2cccc(N3CCN(C)CC3)n2c1=O)c1ccc(OC(F)(F)F)cc1 | ≥ 100 | > 80 |  |  | ≥ 100 | 25 |  | 50 |  | 1 |  |
| C[C@H](NC(=O)Cn1nc2ccc(Cl)nn2c1=O)c1ccc(OC(F)(F)F)cc1 |  | 50 |  | 25 |  | 25 | 10 |  |  | 1 | 1 |
| Cc1ccc([C@H](C)NC(=O)Cn2nc3cccnn3c2=O)cc1 | ≥ 100 | > 80 |  | 25 |  |  |  |  | 50 | 10 | 1 |
| COc1ccc2nn(CC(=O)N[C@@H](C)c3ccc(OC(F)(F)F)cc3)c(=O)n2c1 | < 1 | 50 | < 1 |  |  |  |  | 50 | 25 |  | 1 |
| CC(C)[C@H](NC(=O)Cn1nc2cccnn2c1=O)c1ccc(Cl)c(F)c1 | ≥ 100 | 50 |  | < 25 |  |  |  |  | 50 | 1 | 1 |
| C[C@H](NC(=O)Cn1nc2c(I)ccnn2c1=O)c1ccc(OC(F)(F)F)cc1 | ≥ 100 | 50 | < 1 | < 25 |  |  |  |  | 25 |  | 10 |
| C[C@H](NC(=O)Cn1nc2ncccn2c1=O)c1ccc(OC(F)(F)F)c(F)c1 | ≥ 100 | > 80 |  |  | ≥ 100 | < 25 |  | 25 |  | 1 |  |
| Cc1ccc([C@H](C)NC(=O)Cn2nc3c(C4CCN(C)C4)cccn3c2=O)cc1 (stereo partly drawn) | ≥ 100 | 50 | ≥ 100 | 25 | ≥ 100 | 25 |  |  |  |  |  |
| Cc1cc([C@H](C)NC(=O)Cn2nc3ccccn3c2=O)ccc1Cl |  | > 80 | < 1 |  |  |  | 1 | > 80 | > 80 |  | 1 |
| C[C@H](NC(=O)Cn1nc2ncc(C3CC3)cn2c1=O)c1ccc(Cl)c(F)c1 |  | > 80 | < 1 |  |  |  | 1 | 50 | 50 |  | 10 |
| Cc1ccc([C@H](C)NC(=O)Cn2nc3ccc(C)cn3c2=O)cc1 |  | > 80 | < 1 |  | < 1 |  | 1 | 50 | 50 |  |  |
| C[C@H](NC(=O)Cn1nc2cc(OC3COC3)ccn2c1=O)c1ccc(OC(F)(F)F)cc1 | ≥ 100 | > 80 |  |  |  |  |  | > 80 | 50 | 1 | 1 |
| COc1ccn2c(=O)n(CC(=O)N[C@@H](C)c3ccc(Cl)c(F)c3)nc2c1 |  | > 80 | < 1 |  | < 1 |  | 1 | > 80 | 50 |  |  |
| Cc1cnc2nn(CC(=O)N[C@@H](C)c3ccc(OC(F)(F)F)cc3)c(=O)n2c1 | ≥ 100 | 50 |  | 25 | ≥ 100 | 25 |  |  |  | 1 |  |
| C[C@H](NC(=O)Cn1nc2ccccn2c1=O)c1cnc(C(F)(F)F)nc1 | ≥ 100 | 50 | ≥ 100 | 25 | ≥ 100 | < 25 |  |  |  |  |  |
| Cc1cc(Cl)ccc1[C@H](C)NC(=O)Cn1nc2cccnn2c1=O | ≥ 100 | > 80 |  |  |  |  |  | 50 | 50 | 1 | 1 |
| C[C@H](NC(=O)Cn1nc2ccc(C3CC3)nn2c1=O)c1ccc(OC(F)(F)F)cc1 |  | > 80 |  | 25 | ≥ 100 | < 25 | 10 |  |  | 1 |  |
| CC[C@H](NC(=O)Cn1nc2cccnn2c1=O)c1ccc(Cl)c(F)c1 | ≥ 100 | > 80 |  | 25 |  |  |  |  | > 80 | 1 | 1 |
| C[C@H](NC(=O)Cn1nc2cccnn2c1=O)c1ccc(Cl)cc1 | ≥ 100 | > 80 |  | 25 |  |  |  |  | 50 | 1 | 10 |
| Cc1ncc([C@H](C)NC(=O)Cn2nc3cc(Cl)ccn3c2=O)cc1F |  | > 80 |  |  |  | 25 | 10 | 50 |  | 1 | 1 |
| Cc1ccc([C@H](C)NC(=O)Cn2nc3c(F)cccn3c2=O)cc1 | ≥ 100 | > 80 |  |  |  |  |  | 50 | 50 | 1 | 1 |
| C[C@H](NC(=O)Cn1nc2ccccn2c1=O)c1ccc(Cl)c(Cl)c1 |  | > 80 | < 1 |  |  |  | 1 | > 80 | > 80 |  | 1 |
